These results are taken from patent US20100022514A1, “Heterocycle Compounds and Methods of Use Thereof” (NORVARTIS AG, priority 2006, published 2010).

As a reminder, the IC50 is the midpoint of a concentration-inhibition curve. For orientation: AC50 means the concentration giving half of the maximal activity seen.

The target of experiment [1] is T1, HDAC-1 (Homo sapiens, UniProt Q13547).
T1 construct: made in house
Briefly: Deacetylase fluorescence assay (HDAC-1). It is filed as biochemical. As for the experimental part:
Conventional methods are used to express deacetylase enzymes and purify them from lysed cells. The following example describes an exemplary procedure, however equivalent procedures are within the scope of the invention.
The cell line used is a derivative of 293 cells overexpressing a fusion of the gene encoding each deacetylase protein with a nucleotide sequence encoding the Flag marker.
Cells are grown in Optimem, 2% Fetal Calf Serum, Pen/Strep. For enzyme preparation, Lysis buffer (IPLS) is 50 mM Tris-HCl, pH 7.5, 120 mM NaCl, 0.5 mM EDTA and 0.5% Nonidet P-40, to which is added one tablet of Protease inhibitors (Roche 11836170001) per 10 ml buffer. Other buffers are IPHS, which is IPLS containing 1 M NaCl; TBS (Sigma #T5912) dilute 10× stock to 1× with dH2O; HD buffer: 10 mM Tris pH 8.0 (1M Stock) 10 mM NaCl (5M Stock), 10% glycerol, and for dialysis: 400 μM PMSF is added (for 2 L: use 8 ml 100 mM Stock). Protease inhibitors (Complete mini, Boehringer Mannheim), 1 tablet/10 mL are added to all buffers but not used in buffers for enzyme assays.
Cells are harvested without using trypsin, and most cells are obtained easily in PBS, with gentle striking or agitation of flasks if necessary. More adherent cells are scraped in PBS. Cells are grown in 500 cm^2 trays, from which about half of the media is aspirated (50 ml total), then cells are scraped in the rest of the media and transferred to a centrifuge tube. Trays are washed with 25 ml cold PBS, scraped again to collect additional cells, and centrifuged at 1500 rpm at 4° C. for 5 min. Cells are washed at least 3 times in PBS to remove growth media, pelleting cells after each wash by centrifugation at 1500 rpm for 5 minutes. After washing, PBS is removed and the resulting cell pellet frozen at −80° C. for storage prior to purification.
For purification, cells are resuspended in lysis buffer, 12 ml of IPLS for cells collected from 10 500 cm trays. Cells are lysed at 4° C. for 3 hrs with rocking, and debris is removed by centrifugation for 20 min at 17,000 rpm in 30 ml centrifuge tubes. If supernatant is not clear afterward, centrifugation of the supernatant is repeated. Protein concentration of the whole cell lysate is determined (generally in the range of about 2-5 mg/ml).
For immunoprecipitation per mg of protein, 15 μL of anti-Flag M2-Agarose Affinity beads (Sigma #A2220) is used. Beads are prepared by washing 3 times with 10× bead volume of PBS and 1 time with IPLS, with centrifugation of the washes at 1500 rpm for 5 min. Whole cell lysate is incubated with the Ab-beads overnight at 4° C. Then beads are centrifuged and washed in 5× volume of the following buffers: three times in IPLS (30 sec at 4° C., spin at 1500 RPM for 5 min); three times in IPHS; and three times in TBS buffer. After each centrifugation, the supernatant is aspirated, leaving the pellet as dry as possible but avoiding sucking up any of the beads.
To elute the enzyme, beads are resuspended in 5× bead volume of TBS with protease inhibitor (Roche 11836170001) 1 tablet/10 mL. Enzyme is eluted with 400 μg/mL Flag peptide (Sigma #F-3290) for 3 hrs at 4° C. on rotator. Then beads are centrifuged, and the supernatant is transferred to a new tube to which is added 1/10 volume of glycerol. The supernatant is transferred to a dialysis cassette (Pierce #66410) using a 3 cc syringe and 18 G needle, and is dialyze sup in 2 L HD buffer for 2 hrs at 4° C. (1 L/hour). The resulting purified deacetylase is divided into aliquots (300 μL/tube), is snap frozen in dry ice bath, and is stored at −80° C.
For assay of deacetylase an assay based on Deacetylase Fluorescent Activity Assay/Drug Discovery Kit (BioMol # AK500) is used, however any equivalent deacetylase assay is within the scope of the invention.
The Fluorescent Assay Buffer (FAB) contains: 25 mM Tris-HCl, pH 8.0, 137 mM NaCl, 2.7 mM KCl and 1 mM MgCl2. […]

The test system of experiment [2] is p21 promoter (p21-luc) in H1299 cells. Briefly: p21 promoter luciferase assay using stably transfected p21-luc in H1299 cells. Type of experiment: cell-based. Conditions: Homo sapiens, NCI-H1299. As to the method: The cell lines used are derived from H1299 (p21-luc). The growth media used is RPMI 1640, 10% FBS, 1% Pen/Strep and the selection media added is 500 μg/mL Geneticin (Gibco). The buffer used is 5× cell culture lysis buffer (Promega #E1531), stored at −20 C and the Luciferase assay reagent (Promega #E1483) is stored at −70° C. The results of the assay are analyzed using Wallac Software.
To assay Luciferase, the cell culture medium is removed after one day of growth and the flasks are washed once with PBS. The cells are trypsinized in 20 mL of media and the trypsin is neutralized. The cells are counted (0.5-1 mL) on a Vi-Cell XR cell viability analyzer.
Cells are then diluted to a concentration of approximately 5000 cells/200 μL, and 190 μL samples are aliquoted into each well of a Costar white 96-well TC treated white bottom plate with lid (Costar #3917). Plates are then incubated overnight at 37 C.
After a further day, a sample of the compound is added to the wells for assay.
After a further day, the cells are lysed and the luciferase activity of the lysed cells is measured. Each well is washed twice with PBS and 20 μL/well of 1× cell culture lysis buffer (dilute 5× to 1× in distilled water) is added to each well. The microtiter plates are then shaken on a microtiter plate shaker for 20 minutes at room temperate at a speed setting of 5-6. After removal from the shaker, 100 μL of Luciferase Reagent is added to each well. Each microtiter plate is then read on Wallac Envision instrument.

SMILES strings stand for the structures. Where two headings read alike, the source gives them in different places. A value given as a limit tells only on which side of the number the result lay.

T1 sequence (Q13547 whole entry): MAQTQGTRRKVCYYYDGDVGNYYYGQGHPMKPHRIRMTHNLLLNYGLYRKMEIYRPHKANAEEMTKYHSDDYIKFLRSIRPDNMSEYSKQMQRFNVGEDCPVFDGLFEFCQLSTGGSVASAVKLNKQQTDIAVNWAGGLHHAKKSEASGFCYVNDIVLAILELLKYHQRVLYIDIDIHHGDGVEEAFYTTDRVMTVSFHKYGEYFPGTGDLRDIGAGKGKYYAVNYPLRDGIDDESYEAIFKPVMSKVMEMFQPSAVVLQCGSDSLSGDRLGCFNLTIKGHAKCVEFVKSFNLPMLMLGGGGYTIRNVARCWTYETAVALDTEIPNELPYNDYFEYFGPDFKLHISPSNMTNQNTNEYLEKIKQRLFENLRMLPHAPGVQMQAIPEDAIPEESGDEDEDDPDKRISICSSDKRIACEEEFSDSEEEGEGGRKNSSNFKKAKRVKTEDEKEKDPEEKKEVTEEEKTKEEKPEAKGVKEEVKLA

For `O=C(/C=C/c1ccc2c(c1)CN(C(=O)C1CC1)C2)NO` [Example 23, (E)-3-(2-Cyclopropanecarbonyl-2,3-dihydro-1H-isoindol-5-yl)-N-hydroxy-acrylamide], in experiment [1] (read-out: HDAC-1 IC50), the IC50 was in the range of 0.1 to 1 µM. The same molecule showed an AC50 in experiment [2] of more than 1 µM.

For `O=C(/C=C/c1ccc2c(c1)CN(S(=O)(=O)C1CC1)C2)NO` [Example 24, (E)-3-(2-Cyclopropanesulfonyl-2,3-dihydro-1H-isoindol-5-yl)-N-hydroxy-acrylamide], in experiment [1] (read-out: HDAC-1 IC50), the IC50 was in the range of 0.1 to 1 µM. This molecule had an AC50 in experiment [2] of more than 1 µM.

On to `Cc1[nH]c2ccccc2c1CC(=O)N1Cc2ccc(/C=C/C(=O)NO)cc2C1` [Example 25, (E)-N-Hydroxy-3-{2-[2-(2-methyl-1H-indol-3-yl)-acetyl]-2,3-dihydro-1H-isoindol-5-yl}-acrylamide], for which, in experiment [1] (read-out: HDAC-1 IC50), the IC50 is less than 0.1 µM. This molecule yielded a concentration at half-maximal activity (AC50) in experiment [2] of more than 1 µM.

For `O=C(/C=C/c1ccc2c(c1)CN(C(=O)Cc1ccccc1)C2)NO` [Example 26, (E)-N-Hydroxy-3-(2-phenylacetyl-2,3-dihydro-1H-isoindol-5-yl)-acrylamide], the IC50 in experiment [1] (read-out: HDAC-1 IC50) is 0.1 to 1 µM. In experiment [2], this molecule had an AC50 of more than 1 µM.

`O=C(/C=C/c1ccc2c(c1)CN(CCc1c[nH]c3ccccc13)C2)NO` [Example 27, (E)-N-Hydroxy-3-{2-[2-(1H-indol-3-yl)-ethyl]-2,3-dihydro-1H-isoindol-5-yl}-acrylamide] returned an IC50 in experiment [1] of less than 0.1 µM. Moreover, in experiment [2], the AC50 was more than 1 µM.

As to `O=C(/C=C/c1ccc2c(c1)CN(CCc1cnn3ccccc13)C2)NO` [Example 28, (E)-N-Hydroxy-3-[2-(2-pyrazolo[1,5-a]pyridin-3-yl-ethyl)-2,3-dihydro-1H-isoindol-5-yl]-acrylamide], the IC50 in experiment [1] (read-out: HDAC-1 IC50) is less than 0.1 µM. In experiment [2], this molecule registered an AC50 of more than 1 µM.

With `Cc1[nH]c2ccccc2c1CCN1Cc2ccc(/C=C/C(=O)NO)cc2C1` [Example 29, (E)-N-Hydroxy-3-{2-[2-(2-methyl-1H-indol-3-yl)-ethyl]-2,3-dihydro-1H-isoindol-5-yl}-acrylamide], in experiment [1], the IC50 is less than 0.1 µM. Moreover, in experiment [2], the AC50 lay within 0.1 to 1 µM.

In the case of `O=C(CCc1ccc2c(c1)CN(CCC1CCCCC1)CC2)NO` [Example 31], in experiment [1] (read-out: HDAC-1 IC50), the IC50 lay in the range of 0.1 to 1 µM. In addition, the concentration at half-maximal activity (AC50) in experiment [2] is more than 1 µM.

Take `Cc1nn(C)c(C)c1CN1CCc2cc(/C=C/C(=O)NO)ccc2C1` [Example 32, (E)-N-Hydroxy-3-[2-(1,3,5-trimethyl-1H-pyrazol-4-ylmethyl)-1,2,3,4-tetrahydro-isoquinolin-6-yl]-acrylamide]: in experiment [1] (read-out: HDAC-1 IC50), the IC50 is more than 1 µM. Moreover, the AC50 in experiment [2] was more than 1 µM.

Regarding `Cc1nn2ccccc2c1CCN1CCCc2cc(/C=C/C(=O)NO)ccc2C1` [Example 33, (E)-N-Hydroxy-3-{2-[2-(2-methyl-pyrazolo[1,5-a]pyridin-3-yl)-ethyl]-2,3,4,5-tetrahydro-1H-benzo[c]azepin-7-yl}-acrylamide], the IC50 in experiment [1] (read-out: HDAC-1 IC50) is less than 0.1 µM. This molecule registered an AC50 in experiment [2] of more than 1 µM.

As to `Cc1noc(-c2ccccc2)c1CCN1Cc2ccc(/C=C/C(=O)NO)cc2C1` [Example 34, (E)-N-Hydroxy-3-{2-[2-(3-methyl-5-phenyl-isoxazol-4-yl)-ethyl]-2,3-dihydro-1H-isoindol-5-yl}-acrylamide], the IC50 in experiment [1] (read-out: HDAC-1 IC50) lay within 0.1 to 1 µM. In experiment [2], the AC50 is more than 1 µM.

In the case of `O=C(/C=C/c1ccc2c(c1)CN(CCC1CCCCC1)C2)NO` [Example 35, (E)-3-[2-(2-Cyclohexyl-ethyl)-2,3-dihydro-1H-isoindol-5-yl]-N-hydroxy-acrylamide], the IC50 in experiment [1] (read-out: HDAC-1 IC50) was 0.1 to 1 µM. The molecule also registered an AC50 in experiment [2] of more than 1 µM.

Consider `O=C(/C=C/c1ccc2c(c1)CN(CCc1c[nH]c3ccccc13)CC2)NO` [Example 36, (E)-N-Hydroxy-3-{2-[2-(1H-indol-3-yl)-ethyl]-1,2,3,4-tetrahydro-isoquinolin-7-yl}-acrylamide], for which the IC50 in experiment [1] (read-out: HDAC-1 IC50) is 0.1 to 1 µM. For the same molecule, the AC50 in experiment [2] is more than 1 µM.

On to `Cc1[nH]c2ccccc2c1CCN1CCc2ccc(CCC(=O)NO)cc2C1` [Example 37, N-Hydroxy-3-{2-[2-(2-methyl-1H-indol-3-yl)-ethyl]-1,2,3,4-tetrahydro-isoquinolin-7-yl}-propionamide], for which, in experiment [1] (read-out: HDAC-1 IC50), the IC50 was more than 1 µM. The molecule also displayed an AC50 in experiment [2] of more than 1 µM.

In the case of `Cc1noc(-c2ccccc2)c1CCN1CCc2ccc(/C=C/C(=O)NO)cc2C1` [Example 38, (E)-N-Hydroxy-3-{2-[2-(3-methyl-5-phenyl-isoxazol-4-yl)-ethyl]-1,2,3,4-tetrahydro-isoquinolin-7-yl}-acrylamide], the half-maximal inhibitory concentration (IC50) in experiment [1] (read-out: HDAC-1 IC50) is less than 0.1 µM. In experiment [2], this molecule yielded an AC50 of more than 1 µM.

Consider `Cc1[nH]c2ccccc2c1CCN1CCc2ccc(/C=C/C(=O)NO)cc2C1` [Example 39, (E)-N-Hydroxy-3-{2-[2-(2-methyl-1H-indol-3-yl)-ethyl]-1,2,3,4-tetrahydro-isoquinolin-7-yl}-acrylamide], for which the IC50 in experiment [1] (read-out: HDAC-1 IC50) is less than 0.1 µM. The same molecule yielded an AC50 in experiment [2] of 0.1 to 1 µM.

For `Cc1nn2ccccc2c1CCN1CCc2ccc(/C=C/C(=O)NO)cc2C1` [Example 40, (E)-N-Hydroxy-3-{2-[2-(2-methyl-pyrazolo[1,5-a]pyridin-3-yl)-ethyl]-1,2,3,4-tetrahydro-isoquinolin-7-yl}-acrylamide], the IC50 in experiment [1] (read-out: HDAC-1 IC50) is less than 0.1 µM. The same molecule registered an AC50 in experiment [2] of more than 1 µM.

Turning to `Cc1[nH]c2ccccc2c1CCN1CCCc2cc(/C=C/C(=O)NO)ccc2C1` [Example 41, (E)-N-Hydroxy-3-{2-[2-(2-methyl-1H-indol-3-yl)-ethyl]-2,3,4,5-tetrahydro-1H-benzo[c]azepin-7-yl}-acrylamide], the 50% inhibitory concentration (IC50) in experiment [1] (read-out: HDAC-1 IC50) was less than 0.1 µM. For the same molecule, the AC50 in experiment [2] is more than 1 µM.

On to `CC(C)(C)c1[nH]c2ccccc2c1CCN1CCc2ccc(/C=C/C(=O)NO)cc2C1` [Example 42, (E)-3-{2-[2-(2-tert-Butyl-1H-indol-3-yl)-ethyl]-1,2,3,4-tetrahydro-isoquinolin-7-yl}-N-hydroxy-acrylamide], for which the IC50 in experiment [1] (read-out: HDAC-1 IC50) was less than 0.1 µM. Also, in experiment [2], the AC50 was in the range of 0.1 to 1 µM.

Take `CC(C)(C)c1[nH]c2ncccc2c1CCN1CCc2ccc(/C=C/C(=O)NO)cc2C1` [Example 43, (E)-3-{2-[2-(2-tert-Butyl-1H-pyrrolo[2,3-b]pyridin-3-yl)-ethyl]-1,2,3,4-tetrahydro-isoquinolin-7-yl}-N-hydroxy-acrylamide]: the IC50 in experiment [1] (read-out: HDAC-1 IC50) was less than 0.1 µM. Moreover, in experiment [2], the AC50 is more than 1 µM.

For `O=C(/C=C/c1ccc2c(c1)CN(CCc1ccccc1)CC2)NO` [Example 44, (E)-N-Hydroxy-3-(2-phenethyl-1,2,3,4-tetrahydro-isoquinolin-7-yl)-acrylamide], in experiment [1] (read-out: HDAC-1 IC50), the IC50 fell in the range of 0.1 to 1 µM. In addition, in experiment [2], the AC50 is more than 1 µM.
